Test results reported in patent publication US20100298447A1, “COMPOSITE PRODUCT OF LOW-SOLUBILITY DRUG AND SURFACTANT, AND PROCESS FOR PRODUCTION THEREOF” (priority 2007, published 2010).

Test: Solubility of aciclovir in water at room temperature
Assay type: physicochemical
Settings: room temperature (25° C.)
Procedure: Thus, an S/O solution could not be obtained. Thus, an aciclovir dispersion was prepared in the form of an S/O solution.

solubility in water: very poor
Compound: Nc1nc2c(ncn2COCCO)c(=O)[nH]1 [aciclovir]
